Measurements published in publication PMC6115456, “PI3Ka-Akt1-mediated Prdm4 induction in adipose tissue increases energy expenditure, inhibits weight gain, and improves insulin resistance in diet-induced obese mice” (Cell Death & Disease, 2018).

Target: T1, PI3Kα (class I catalytic subunit p110α) (Homo sapiens, UniProt P42336)
T1 construct: gene PIK3CA
Assay: PI3K ADP-Glo kinase assay (Promega) on purified PI3Kα; also […] inhibition at […] in a recombinant kinase panel
Assay type: biochemical

T1 sequence (P42336 whole entry): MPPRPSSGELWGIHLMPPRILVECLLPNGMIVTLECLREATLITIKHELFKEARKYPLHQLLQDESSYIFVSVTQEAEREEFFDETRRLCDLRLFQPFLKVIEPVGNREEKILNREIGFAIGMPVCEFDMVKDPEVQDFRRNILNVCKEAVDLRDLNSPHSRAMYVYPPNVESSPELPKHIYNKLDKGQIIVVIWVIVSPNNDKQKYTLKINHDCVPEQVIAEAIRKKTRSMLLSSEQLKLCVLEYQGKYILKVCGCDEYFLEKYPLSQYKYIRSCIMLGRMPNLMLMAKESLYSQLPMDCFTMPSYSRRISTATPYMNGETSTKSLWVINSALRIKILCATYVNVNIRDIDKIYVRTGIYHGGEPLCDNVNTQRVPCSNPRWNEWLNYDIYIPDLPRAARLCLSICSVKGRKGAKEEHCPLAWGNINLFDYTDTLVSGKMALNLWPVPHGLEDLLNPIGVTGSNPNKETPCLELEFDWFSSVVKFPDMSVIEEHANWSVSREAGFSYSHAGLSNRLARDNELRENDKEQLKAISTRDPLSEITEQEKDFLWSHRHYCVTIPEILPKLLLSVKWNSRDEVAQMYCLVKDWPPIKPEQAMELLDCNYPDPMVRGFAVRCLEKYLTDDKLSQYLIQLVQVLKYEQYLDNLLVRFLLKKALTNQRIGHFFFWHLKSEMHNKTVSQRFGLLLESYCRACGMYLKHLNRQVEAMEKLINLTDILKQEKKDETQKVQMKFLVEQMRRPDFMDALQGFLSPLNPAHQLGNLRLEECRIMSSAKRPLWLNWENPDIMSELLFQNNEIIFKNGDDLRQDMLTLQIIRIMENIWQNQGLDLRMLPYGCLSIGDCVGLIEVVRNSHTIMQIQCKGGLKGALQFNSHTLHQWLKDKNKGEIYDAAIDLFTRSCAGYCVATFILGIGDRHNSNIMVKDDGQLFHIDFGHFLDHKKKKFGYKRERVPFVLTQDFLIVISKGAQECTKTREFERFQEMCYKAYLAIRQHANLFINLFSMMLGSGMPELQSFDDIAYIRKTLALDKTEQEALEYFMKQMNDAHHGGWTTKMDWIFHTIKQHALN
T1 sequence (P27986 2-724 partner): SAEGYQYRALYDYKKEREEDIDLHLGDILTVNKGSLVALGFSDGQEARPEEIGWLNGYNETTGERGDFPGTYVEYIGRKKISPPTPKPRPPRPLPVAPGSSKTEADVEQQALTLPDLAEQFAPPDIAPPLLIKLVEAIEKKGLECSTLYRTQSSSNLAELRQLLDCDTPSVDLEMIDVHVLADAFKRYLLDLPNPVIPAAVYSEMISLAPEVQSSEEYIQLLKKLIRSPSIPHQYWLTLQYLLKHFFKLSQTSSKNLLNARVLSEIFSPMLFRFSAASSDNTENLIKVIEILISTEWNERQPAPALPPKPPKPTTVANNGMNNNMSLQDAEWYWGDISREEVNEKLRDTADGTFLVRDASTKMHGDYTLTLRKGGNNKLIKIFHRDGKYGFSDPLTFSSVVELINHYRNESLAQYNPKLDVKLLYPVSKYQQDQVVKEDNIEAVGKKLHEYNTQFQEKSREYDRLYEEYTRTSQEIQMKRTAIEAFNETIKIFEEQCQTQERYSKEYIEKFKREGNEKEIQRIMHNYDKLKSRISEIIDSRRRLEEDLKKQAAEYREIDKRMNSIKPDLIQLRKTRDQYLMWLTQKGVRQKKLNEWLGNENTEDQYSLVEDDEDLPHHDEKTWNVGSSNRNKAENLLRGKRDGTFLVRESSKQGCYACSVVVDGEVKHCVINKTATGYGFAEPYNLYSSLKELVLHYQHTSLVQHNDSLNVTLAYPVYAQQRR

O=C(/C=C/c1ccc(O)c(O)c1)c1ccc(O)cc1O [butein]
IC50: 6.4 µM
